As a reminder, the IC50 is the point on the concentration scale where inhibition reaches its midpoint.

“And” between values parts separate entries of the source, which are not always exact repeats. Equal values may be shown once.

One assay concerns the target RSV MTase-CTD (Human respiratory syncytial virus A, UniProt P28887). Kind of assay: MTase activity inhibition, filter-binding assay (3H-methyl transfer from SAM to GpppG-RSV9 RNA). The conditions noted are these: for IC50: 25 nM RSV MTase-CTD, 0.7 μM GpppG-RSV9 RNA, 2 μM SAM, pH 7.5, 30°C, Hill slope curve-fitting. The assay is classed as biochemical.
A further assay concerns the target RSV L-P complex (Human respiratory syncytial virus A, UniProt P28887). In words: MTase activity inhibition, filter-binding assay with the RSV L-P complex. The assay is classed as biochemical, human RSV (strain A2). The following applies: 60 nM RSV L-P complex, 1.8 μM GpppG-RSV9 RNA, 0.17 μM SAM and 0.8 μM 3H-SAM, pH 7.5, 30°C.
The next assay concerns VSV. The following applies: BHK cells, plaque assay; read-out: half maximal effective concentration (EC50), VSV replication; cited from earlier work.
The next assay has as its system RSV. In words: Antiviral activity in cellular assay, replication of RSV in HeLa cells. The assay is classed as cell-based, Respiratory syncytial virus. The following applies: before toxicity.

Chain of RSV L-P complex (P03421 whole entry): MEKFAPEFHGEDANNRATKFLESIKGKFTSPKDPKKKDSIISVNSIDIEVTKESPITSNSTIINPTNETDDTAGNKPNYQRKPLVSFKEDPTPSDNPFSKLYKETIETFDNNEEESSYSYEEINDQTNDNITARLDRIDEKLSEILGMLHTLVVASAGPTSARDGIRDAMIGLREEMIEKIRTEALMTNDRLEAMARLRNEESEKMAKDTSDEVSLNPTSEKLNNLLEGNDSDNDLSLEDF
Chain of RSV L-P complex (P28887 whole entry): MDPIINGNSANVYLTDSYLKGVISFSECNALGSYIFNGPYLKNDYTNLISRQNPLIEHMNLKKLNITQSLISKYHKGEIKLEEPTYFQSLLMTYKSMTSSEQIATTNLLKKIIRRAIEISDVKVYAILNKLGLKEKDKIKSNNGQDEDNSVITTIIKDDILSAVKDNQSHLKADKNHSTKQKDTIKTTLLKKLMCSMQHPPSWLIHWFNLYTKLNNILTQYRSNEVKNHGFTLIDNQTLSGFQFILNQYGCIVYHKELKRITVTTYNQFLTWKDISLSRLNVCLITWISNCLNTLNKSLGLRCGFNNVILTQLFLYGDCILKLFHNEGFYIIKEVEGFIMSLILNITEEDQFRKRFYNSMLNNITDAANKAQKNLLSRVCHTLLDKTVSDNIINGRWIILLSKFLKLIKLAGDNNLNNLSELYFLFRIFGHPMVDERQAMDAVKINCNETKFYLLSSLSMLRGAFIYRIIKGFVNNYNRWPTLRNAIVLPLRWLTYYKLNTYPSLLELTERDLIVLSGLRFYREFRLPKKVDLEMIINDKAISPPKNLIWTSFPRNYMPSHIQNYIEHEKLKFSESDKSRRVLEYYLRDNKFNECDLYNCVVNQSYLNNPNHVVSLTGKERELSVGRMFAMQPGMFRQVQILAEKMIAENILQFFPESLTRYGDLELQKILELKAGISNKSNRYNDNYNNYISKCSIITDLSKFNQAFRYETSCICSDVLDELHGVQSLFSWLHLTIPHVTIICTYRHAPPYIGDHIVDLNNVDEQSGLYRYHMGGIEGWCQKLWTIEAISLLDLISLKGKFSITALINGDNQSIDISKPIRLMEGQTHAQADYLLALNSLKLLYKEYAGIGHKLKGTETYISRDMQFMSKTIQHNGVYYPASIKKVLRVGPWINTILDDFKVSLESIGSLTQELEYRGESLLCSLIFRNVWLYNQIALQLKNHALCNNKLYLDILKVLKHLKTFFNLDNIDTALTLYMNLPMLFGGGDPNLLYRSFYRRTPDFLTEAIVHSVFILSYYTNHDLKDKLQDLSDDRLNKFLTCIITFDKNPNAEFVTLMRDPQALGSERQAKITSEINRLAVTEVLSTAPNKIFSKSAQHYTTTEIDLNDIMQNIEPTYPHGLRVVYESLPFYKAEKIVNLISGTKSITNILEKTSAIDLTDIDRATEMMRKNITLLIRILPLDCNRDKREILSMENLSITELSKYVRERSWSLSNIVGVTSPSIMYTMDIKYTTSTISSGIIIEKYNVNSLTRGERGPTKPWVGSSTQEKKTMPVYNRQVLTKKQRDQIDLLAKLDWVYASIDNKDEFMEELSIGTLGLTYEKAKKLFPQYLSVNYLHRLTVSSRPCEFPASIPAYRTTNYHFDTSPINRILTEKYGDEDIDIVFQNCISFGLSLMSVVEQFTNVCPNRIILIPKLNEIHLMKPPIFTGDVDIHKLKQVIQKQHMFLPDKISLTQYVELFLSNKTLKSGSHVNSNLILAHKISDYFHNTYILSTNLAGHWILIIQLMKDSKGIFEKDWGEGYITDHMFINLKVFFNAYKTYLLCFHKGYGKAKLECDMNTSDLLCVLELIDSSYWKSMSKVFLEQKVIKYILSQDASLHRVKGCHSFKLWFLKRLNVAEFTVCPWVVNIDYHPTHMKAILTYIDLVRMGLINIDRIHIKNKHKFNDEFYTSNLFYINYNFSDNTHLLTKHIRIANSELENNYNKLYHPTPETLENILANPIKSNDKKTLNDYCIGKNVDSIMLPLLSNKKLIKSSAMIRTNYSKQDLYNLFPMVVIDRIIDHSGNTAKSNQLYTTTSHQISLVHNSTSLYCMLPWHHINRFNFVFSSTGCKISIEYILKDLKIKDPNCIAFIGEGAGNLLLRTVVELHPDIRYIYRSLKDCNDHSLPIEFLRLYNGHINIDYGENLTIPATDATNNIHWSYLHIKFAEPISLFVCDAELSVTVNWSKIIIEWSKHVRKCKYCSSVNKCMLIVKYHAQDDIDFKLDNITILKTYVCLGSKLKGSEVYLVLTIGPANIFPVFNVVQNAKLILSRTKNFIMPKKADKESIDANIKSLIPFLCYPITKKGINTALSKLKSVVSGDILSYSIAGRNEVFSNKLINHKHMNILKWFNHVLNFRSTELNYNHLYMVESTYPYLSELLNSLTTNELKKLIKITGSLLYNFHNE
Chain of RSV MTase-CTD (P28887 1755-2165): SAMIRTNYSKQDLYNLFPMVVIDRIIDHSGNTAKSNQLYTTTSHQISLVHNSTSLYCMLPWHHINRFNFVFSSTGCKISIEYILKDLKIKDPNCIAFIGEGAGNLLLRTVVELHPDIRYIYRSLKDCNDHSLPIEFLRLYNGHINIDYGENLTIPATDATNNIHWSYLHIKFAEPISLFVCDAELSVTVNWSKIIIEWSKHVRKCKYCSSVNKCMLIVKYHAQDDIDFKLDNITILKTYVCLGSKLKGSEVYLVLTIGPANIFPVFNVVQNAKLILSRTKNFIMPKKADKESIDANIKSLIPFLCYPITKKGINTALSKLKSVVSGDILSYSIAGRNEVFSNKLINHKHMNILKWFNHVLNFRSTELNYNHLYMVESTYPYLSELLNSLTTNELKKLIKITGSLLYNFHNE

For `Nc1nc2c(ncn2[C@@H]2O[C@H](COP(=O)(O)OP(=O)(O)OP(=O)(O)OC[C@H]3O[C@@H](n4cnc5c(N)ncnc54)[C@H](O)[C@@H]3O)[C@@H](O)[C@H]2O)c(=O)[nH]1` [GpppA], the “inhibitory activity on RSV MTase-CTD compared with GpppG” value on RSV MTase-CTD is listed as “lower inhibitory activity”.

As to `Nc1nc2c(ncn2[C@@H]2O[C@H](COP(=O)(O)OP(=O)(O)OP(=O)(O)OC[C@H]3O[C@@H](n4cnc5c(=O)[nH]c(N)nc54)[C@H](O)[C@@H]3O)[C@@H](O)[C@H]2O)c(=O)[nH]1` [GpppG], at RSV MTase-CTD ([…], methylation of GpppG-RSV9 RNA by FBA, 50 µM), the “inhibition of the activity of the RSV MTase-CTD” value is listed as 50%.

Regarding `Nc1ncnc2c1ncn2[C@@H]1O[C@H](CSCC[C@H](N)C(=O)O)[C@@H](O)[C@H]1O` [SAH, S-adenosyl homocysteine], the IC50 at RSV L-P complex was 37.8 µM and ~37.8 µM; at RSV MTase-CTD (3 h) it was 24.7 µM and ~24.7 µM.

For the compound `Cn1c[n+]([C@@H]2O[C@H](COP(=O)(O)OP(=O)([O-])O)[C@@H](O)[C@H]2O)c2nc(N)[nH]c(=O)c21` [^mGDP], the “inhibitory activity on RSV MTase-CTD compared with GpppG” value on RSV MTase-CTD is on record as “lower inhibitory activity”.

`C[n+]1cn(C2OC(COP(=O)([O-])OP(=O)(O)OP(=O)(O)OCC3OC(n4cnc5c(N)ncnc54)C(O)C3O)C(O)C2O)c2nc(N)[nH]c(=O)c21` (stereo not shown) [^mGpppA]: the “inhibitory activity on RSV MTase-CTD compared with GpppG” value at RSV MTase-CTD was “lower inhibitory activity”.

Consider `Nc1ncnc2c1ncn2[C@@H]1O[C@H](C[C@@H](N)CC[C@H](N)C(=O)O)[C@@H](O)[C@H]1O` [sinefungin], for which the EC50 in the assay with VSV is 220 µM. Further, in the assay on RSV, the “inhibition of replication of RSV” value is given as “did not show inhibition activity”. Moreover, the IC50 at RSV L-P complex is 9.8 µM and ~9.8 µM; at RSV MTase-CTD, 6.4 µM and ~6.4 µM.
